# Assay: loss of linezolid in IV aqueous solution during and following terminal moist heat sterilization in the container
# Assay type: physicochemical
# Details: container-solution contact surface made of at least 50% polyolefin
# Method: The linezolid IV solution is formulated by heating water for injection from about 50 to about 65°. Next the sodium citrate, citric acid and dextrose are added and stirred until dissolved. An aqueous slurry of linezolid is added to the previous mixture and stirred until dissolved. The mixture is cooled to 25° with stirring. The pH is measured and adjusted if necessary. Last the mixture is brought to volume, if necessary, with water for injection. The mixture is filtered, filled into infusion containers, over wrapped and terminally moist heat sterilized.
# When terminally moist heat sterilizing an IV solution, the solution is placed in the container in which (1) it will be stored and then transferred to the container from which it will ultimately be administered, or (2) stored and then ultimately administered from the same container to deliver the IV solution to the patient. Therefore, it is imperative that the pharmaceutically active ingredient (oxazolidinone, linezolid) not react with the container in which it is to be terminally moist heat sterilized and stored/stored-administered.
# What is essential is that the container-solution contact surface material be primarily a polyolefin; the remainder of the container can be made from polyolefin or other materials. It is preferred that the container-solution contact surface is made of from about 50 to about 100% polyolefin. […]
structure (smiles),measurement,value
"CC(=O)NC[C@H]1CN(c2ccc(N3CCOCC3)c(F)c2)C(=O)O1 [linezolid, (S)-N-[[3-[3-fluoro-4-(4-morpholinyl)phenyl]-2-oxo-5-oxazolidinyl]methyl]acetamide]",loss of linezolid during and following terminal moist heat sterilization,significantly much less loss
